# Measured values: ChEMBL document CHEMBL4507316 (2021)
# Assays:
# [1] = biological target: 5-hydroxytryptamine receptor 2A (Homo sapiens, UniProt P28223); test: GPCRScan assay: inhibition of 5-HT2A; set-up: radioligand conc. used [nm] 1.2 – 2.4, parental cells HEKT
# [2] = system: Tyrosine-protein kinase ABL1 (Homo sapiens), P00519 [E255K]; test: ABL1 E255K ProQinase selectivity panel; settings: Compound concentration 1.0 uM
# [3] = system: Tyrosine-protein kinase ABL1 (Homo sapiens), P00519 [Y253F]; test: ABL1 Y253F ProQinase selectivity panel; settings: Compound concentration 1.0 uM
# [4] = biological target: Tyrosine-protein kinase ABL2 (Homo sapiens) (UniProt P42684); test: ABL2 ProQinase selectivity panel; settings: Compound concentration 1.0 uM
# [5] = biological target: RAC-beta serine/threonine-protein kinase (Homo sapiens) (UniProt P31751); test: AKT2 ProQinase selectivity panel; settings: Compound concentration 1.0 uM
# [6] = biological target: RAC-gamma serine/threonine-protein kinase (Homo sapiens) (UniProt Q9Y243); test: AKT3 ProQinase selectivity panel; settings: Compound concentration 1.0 uM
# Chain of RAC-gamma serine/threonine-protein kinase (Homo sapiens) (Q9Y243 whole entry): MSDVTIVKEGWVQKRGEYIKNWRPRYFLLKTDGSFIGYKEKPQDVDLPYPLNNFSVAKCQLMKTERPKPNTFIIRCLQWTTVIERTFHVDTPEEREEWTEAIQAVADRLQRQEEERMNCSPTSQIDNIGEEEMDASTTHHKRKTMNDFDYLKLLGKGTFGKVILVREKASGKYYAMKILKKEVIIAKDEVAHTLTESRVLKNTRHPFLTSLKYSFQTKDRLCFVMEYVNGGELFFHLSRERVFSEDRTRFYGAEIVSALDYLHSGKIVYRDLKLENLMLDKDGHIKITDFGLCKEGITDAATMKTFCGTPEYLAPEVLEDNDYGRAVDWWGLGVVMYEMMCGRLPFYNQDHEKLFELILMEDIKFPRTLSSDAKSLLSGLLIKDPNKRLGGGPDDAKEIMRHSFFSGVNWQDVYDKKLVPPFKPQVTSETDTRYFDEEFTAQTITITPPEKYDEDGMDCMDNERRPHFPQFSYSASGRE
# [7] = biological target: Aurora kinase A (Homo sapiens) (UniProt O14965); test: Aurora-A ProQinase selectivity panel; settings: Compound concentration 1.0 uM
# [8] = biological target: Serine/threonine-protein kinase BRSK1 (Homo sapiens) (UniProt Q8TDC3); test: BRSK1 ProQinase selectivity panel; settings: Compound concentration 1.0 uM
# [9] = biological target: Calcium/calmodulin-dependent protein kinase kinase 1 (Homo sapiens) (UniProt Q8N5S9); test: CAMKK1 ProQinase selectivity panel; settings: Compound concentration 1.0 uM
# [10] = biological target: CDK7/Cyclin H/MNAT1 (Homo sapiens) (UniProt P51946+P50613+P51948); test: CDK7/CycH/MAT1 ProQinase selectivity panel; type: protein-complex assay; settings: Compound concentration 1.0 uM
# [11] = system: Epidermal growth factor receptor (Homo sapiens), P00533 [UNDEFINED MUTATION]; test: EGF-R d747-749/A750P ProQinase selectivity panel; settings: Compound concentration 1.0 uM
# Chain of Epidermal growth factor receptor (Homo sapiens), P00533 [UNDEFINED MUTATION] (P00533 whole entry, looked up, stated change not applied): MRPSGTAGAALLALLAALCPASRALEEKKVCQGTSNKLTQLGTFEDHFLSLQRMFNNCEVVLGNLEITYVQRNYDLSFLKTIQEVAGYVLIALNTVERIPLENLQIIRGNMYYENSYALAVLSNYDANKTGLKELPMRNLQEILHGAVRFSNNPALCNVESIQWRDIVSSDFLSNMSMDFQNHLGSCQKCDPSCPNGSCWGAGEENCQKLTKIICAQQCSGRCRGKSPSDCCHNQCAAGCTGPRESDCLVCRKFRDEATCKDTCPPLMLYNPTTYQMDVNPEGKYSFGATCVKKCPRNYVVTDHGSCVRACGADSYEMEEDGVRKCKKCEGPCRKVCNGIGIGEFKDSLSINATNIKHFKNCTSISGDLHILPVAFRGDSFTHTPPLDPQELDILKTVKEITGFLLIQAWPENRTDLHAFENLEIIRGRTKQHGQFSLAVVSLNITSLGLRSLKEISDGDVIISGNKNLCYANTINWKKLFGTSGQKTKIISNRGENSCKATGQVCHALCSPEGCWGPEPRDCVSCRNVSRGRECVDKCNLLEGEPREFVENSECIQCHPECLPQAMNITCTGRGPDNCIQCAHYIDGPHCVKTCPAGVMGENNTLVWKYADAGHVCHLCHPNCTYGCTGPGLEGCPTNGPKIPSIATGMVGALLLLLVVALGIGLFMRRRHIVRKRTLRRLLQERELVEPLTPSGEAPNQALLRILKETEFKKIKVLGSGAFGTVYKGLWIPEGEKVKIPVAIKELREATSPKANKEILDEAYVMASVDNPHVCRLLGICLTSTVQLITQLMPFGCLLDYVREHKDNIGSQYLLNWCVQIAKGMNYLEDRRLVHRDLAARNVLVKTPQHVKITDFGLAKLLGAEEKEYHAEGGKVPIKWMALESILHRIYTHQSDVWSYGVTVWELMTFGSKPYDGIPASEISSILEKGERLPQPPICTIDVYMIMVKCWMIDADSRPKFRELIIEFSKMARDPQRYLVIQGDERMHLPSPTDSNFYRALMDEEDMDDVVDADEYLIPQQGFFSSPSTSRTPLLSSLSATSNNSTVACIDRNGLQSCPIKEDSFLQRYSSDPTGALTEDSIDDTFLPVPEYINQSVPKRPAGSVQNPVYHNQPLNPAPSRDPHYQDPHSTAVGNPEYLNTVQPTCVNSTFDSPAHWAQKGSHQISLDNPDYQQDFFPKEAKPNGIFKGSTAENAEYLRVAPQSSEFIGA
# [12] = system: Epidermal growth factor receptor (Homo sapiens), P00533 [G719C]; test: EGF-R G719C ProQinase selectivity panel; settings: Compound concentration 1.0 uM
# [13] = system: Epidermal growth factor receptor (Homo sapiens), P00533 [T790M]; test: EGF-R T790M ProQinase selectivity panel; settings: Compound concentration 1.0 uM
# [14] = biological target: Ephrin type-B receptor 1 (Homo sapiens) (UniProt P54762); test: EPHB1 ProQinase selectivity panel; settings: Compound concentration 1.0 uM
# [15] = biological target: Ephrin type-B receptor 4 (Homo sapiens) (UniProt P54760); test: EPHB4 ProQinase selectivity panel; settings: Compound concentration 1.0 uM
# [16] = biological target: Receptor tyrosine-protein kinase erbB-2 (Homo sapiens) (UniProt P04626); test: ERBB2 ProQinase selectivity panel; settings: Compound concentration 1.0 uM
# [17] = biological target: Tyrosine-protein kinase Fes/Fps (Homo sapiens) (UniProt P07332); test: FES ProQinase selectivity panel; settings: Compound concentration 1.0 uM
# [18] = biological target: Beta-adrenergic receptor kinase 1 (Homo sapiens) (UniProt P25098); test: GRK2 ProQinase selectivity panel; settings: Compound concentration 1.0 uM
# [19] = biological target: Inhibitor of nuclear factor kappa-B kinase subunit beta (Homo sapiens) (UniProt O14920); test: IKK-beta ProQinase selectivity panel; settings: Compound concentration 1.0 uM
# [20] = biological target: Mast/stem cell growth factor receptor Kit (Homo sapiens) (UniProt P10721); test: KIT wt ProQinase selectivity panel; settings: Compound concentration 1.0 uM
# [21] = biological target: LIM domain kinase 1 (Homo sapiens) (UniProt P53667); test: LIMK1 ProQinase selectivity panel; settings: Compound concentration 1.0 uM
# [22] = system: Leucine-rich repeat serine/threonine-protein kinase 2 (Homo sapiens), Q5S007 [I2020T]; test: LRRK2 I2020T ProQinase selectivity panel; settings: Compound concentration 1.0 uM
# [23] = biological target: Serine/threonine-protein kinase MARK1 (Homo sapiens) (UniProt Q9P0L2); test: MARK1 ProQinase selectivity panel; settings: Compound concentration 1.0 uM
# [24] = biological target: Mitogen-activated protein kinase kinase kinase 2 (Homo sapiens) (UniProt Q9Y2U5); test: MEKK2 ProQinase selectivity panel; settings: Compound concentration 1.0 uM
# [25] = system: Hepatocyte growth factor receptor (Homo sapiens), P08581 [Y1230H]; test: MET Y1230H ProQinase selectivity panel; settings: Compound concentration 1.0 uM
# [26] = biological target: Myosin light chain kinase (Homo sapiens) (UniProt Q32MK0); test: MYLK3 ProQinase selectivity panel; settings: Compound concentration 1.0 uM
# [27] = biological target: Serine/threonine-protein kinase PAK 2 (Homo sapiens) (UniProt Q13177); test: PAK2 ProQinase selectivity panel; settings: Compound concentration 1.0 uM
# [28] = biological target: Serine/threonine-protein kinase PAK 5 (Homo sapiens) (UniProt Q9P286); test: PAK7 ProQinase selectivity panel; settings: Compound concentration 1.0 uM
# Chain of Serine/threonine-protein kinase PAK 5 (Homo sapiens) (Q9P286 whole entry, looked up, canonical isoform): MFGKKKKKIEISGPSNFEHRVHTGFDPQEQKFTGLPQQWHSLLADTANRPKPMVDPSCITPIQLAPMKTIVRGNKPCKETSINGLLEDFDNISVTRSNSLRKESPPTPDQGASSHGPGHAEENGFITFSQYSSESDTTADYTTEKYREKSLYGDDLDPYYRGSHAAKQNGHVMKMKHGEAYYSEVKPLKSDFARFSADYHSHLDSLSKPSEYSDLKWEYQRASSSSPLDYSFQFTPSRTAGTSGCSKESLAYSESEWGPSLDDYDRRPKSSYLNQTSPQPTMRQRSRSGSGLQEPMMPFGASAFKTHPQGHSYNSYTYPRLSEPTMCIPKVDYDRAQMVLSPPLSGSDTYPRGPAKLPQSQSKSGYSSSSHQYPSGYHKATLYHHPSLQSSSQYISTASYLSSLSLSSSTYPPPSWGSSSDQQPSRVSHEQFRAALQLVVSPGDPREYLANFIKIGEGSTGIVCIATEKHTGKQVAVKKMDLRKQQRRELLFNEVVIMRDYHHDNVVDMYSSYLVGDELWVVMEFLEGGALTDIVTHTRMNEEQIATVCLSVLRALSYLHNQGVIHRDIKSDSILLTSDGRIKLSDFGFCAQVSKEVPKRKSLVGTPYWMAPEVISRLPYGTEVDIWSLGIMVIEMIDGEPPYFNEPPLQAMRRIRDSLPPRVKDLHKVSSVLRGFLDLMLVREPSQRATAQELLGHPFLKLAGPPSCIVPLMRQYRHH
# [29] = biological target: Phosphorylase b kinase gamma catalytic chain, skeletal muscle/heart isoform (Homo sapiens) (UniProt Q16816); test: PHKG1 ProQinase selectivity panel; settings: Compound concentration 1.0 uM
# [30] = biological target: Serine/threonine-protein kinase pim-2 (Homo sapiens) (UniProt Q9P1W9); test: PIM2 ProQinase selectivity panel; settings: Compound concentration 1.0 uM
# [31] = biological target: cAMP-dependent protein kinase catalytic subunit alpha (Homo sapiens) (UniProt P17612); test: PKA ProQinase selectivity panel; settings: Compound concentration 1.0 uM
# [32] = biological target: Serine/threonine-protein kinase D2 (Homo sapiens) (UniProt Q9BZL6); test: PRKD2 ProQinase selectivity panel; settings: Compound concentration 1.0 uM
# [33] = biological target: Proto-oncogene tyrosine-protein kinase receptor Ret (Homo sapiens) (UniProt P07949); test: RET wt ProQinase selectivity panel; settings: Compound concentration 1.0 uM
# Chain of Proto-oncogene tyrosine-protein kinase receptor Ret (Homo sapiens) (P07949 whole entry): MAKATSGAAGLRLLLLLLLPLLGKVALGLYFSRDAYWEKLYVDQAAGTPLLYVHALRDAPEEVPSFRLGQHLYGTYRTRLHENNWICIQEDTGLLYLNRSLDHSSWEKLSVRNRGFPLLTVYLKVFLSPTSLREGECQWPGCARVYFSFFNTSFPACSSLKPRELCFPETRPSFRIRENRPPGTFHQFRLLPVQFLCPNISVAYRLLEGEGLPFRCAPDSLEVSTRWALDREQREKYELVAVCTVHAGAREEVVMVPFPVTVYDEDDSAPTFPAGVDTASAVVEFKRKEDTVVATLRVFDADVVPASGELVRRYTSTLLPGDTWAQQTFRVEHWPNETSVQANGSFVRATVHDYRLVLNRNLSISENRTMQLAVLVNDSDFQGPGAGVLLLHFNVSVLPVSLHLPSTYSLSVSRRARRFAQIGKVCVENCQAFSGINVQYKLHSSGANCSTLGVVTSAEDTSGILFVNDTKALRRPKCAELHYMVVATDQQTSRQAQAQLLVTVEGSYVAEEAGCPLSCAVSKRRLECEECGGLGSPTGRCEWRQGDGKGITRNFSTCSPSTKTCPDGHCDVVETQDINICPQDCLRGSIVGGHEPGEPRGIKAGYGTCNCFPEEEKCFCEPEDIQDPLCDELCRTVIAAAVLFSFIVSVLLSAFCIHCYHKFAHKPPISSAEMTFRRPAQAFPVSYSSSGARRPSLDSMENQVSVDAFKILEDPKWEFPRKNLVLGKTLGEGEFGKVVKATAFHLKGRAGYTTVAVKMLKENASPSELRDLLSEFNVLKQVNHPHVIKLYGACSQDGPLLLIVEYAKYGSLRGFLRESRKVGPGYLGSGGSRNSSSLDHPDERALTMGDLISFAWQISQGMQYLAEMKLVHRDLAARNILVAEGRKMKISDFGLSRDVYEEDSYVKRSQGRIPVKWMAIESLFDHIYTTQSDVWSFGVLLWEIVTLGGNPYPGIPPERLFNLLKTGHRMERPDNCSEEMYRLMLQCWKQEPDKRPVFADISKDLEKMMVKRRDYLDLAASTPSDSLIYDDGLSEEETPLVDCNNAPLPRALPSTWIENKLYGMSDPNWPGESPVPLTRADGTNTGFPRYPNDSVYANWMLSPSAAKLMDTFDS
# [34] = system: Proto-oncogene tyrosine-protein kinase receptor Ret (Homo sapiens), P07949 [Y791F]; test: RET Y791F ProQinase selectivity panel; settings: Compound concentration 1.0 uM
# Chain of Proto-oncogene tyrosine-protein kinase receptor Ret (Homo sapiens), P07949 [Y791F] (P07949 whole entry Y791F): as the sequence (P07949 whole entry) above, with Y791F counted along it
# [35] = biological target: Ribosomal protein S6 kinase alpha-6 (Homo sapiens) (UniProt Q9UK32); test: RPS6KA6 ProQinase selectivity panel; settings: Compound concentration 1.0 uM
# [36] = biological target: Serine/threonine-protein kinase 17A (Homo sapiens) (UniProt Q9UEE5); test: STK17A ProQinase selectivity panel; settings: Compound concentration 1.0 uM
# [37] = biological target: STE20/SPS1-related proline-alanine-rich protein kinase (Homo sapiens) (UniProt Q9UEW8); test: STK39 ProQinase selectivity panel; settings: Compound concentration 1.0 uM
# [38] = biological target: Wee1-like protein kinase (Homo sapiens) (UniProt P30291); test: WEE1 ProQinase selectivity panel; settings: Compound concentration 1.0 uM
# [39] = biological target: 5-hydroxytryptamine receptor 1B (Homo sapiens) (UniProt P28222); settings: Compound concentration 10.0 uM
# [40] = biological target: 5-hydroxytryptamine receptor 1E (Homo sapiens) (UniProt P28566); settings: Compound concentration 10.0 uM
# [41] = biological target: 5-hydroxytryptamine receptor 5A (Homo sapiens) (UniProt P47898); settings: Compound concentration 10.0 uM
# Chain of 5-hydroxytryptamine receptor 5A (Homo sapiens) (P47898 whole entry): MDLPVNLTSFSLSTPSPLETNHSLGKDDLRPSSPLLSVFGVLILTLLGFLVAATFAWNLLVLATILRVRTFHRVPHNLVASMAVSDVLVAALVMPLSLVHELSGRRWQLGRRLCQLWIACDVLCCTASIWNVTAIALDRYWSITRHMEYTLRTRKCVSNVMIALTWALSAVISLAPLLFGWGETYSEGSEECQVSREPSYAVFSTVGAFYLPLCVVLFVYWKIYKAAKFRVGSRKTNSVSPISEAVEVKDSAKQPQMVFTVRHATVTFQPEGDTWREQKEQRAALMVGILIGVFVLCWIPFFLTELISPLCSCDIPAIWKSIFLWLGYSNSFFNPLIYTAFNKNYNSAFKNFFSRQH
# [42] = biological target: D(2) dopamine receptor (Homo sapiens) (UniProt P14416); settings: Compound concentration 10.0 uM
# [43] = biological target: Mu-type opioid receptor (Homo sapiens) (UniProt P35372); settings: Compound concentration 10.0 uM
# [44] = biological target: GABA-A receptor; anion channel (Rattus norvegicus) (UniProt O09028+P15431+P18506+P18508+P19969+P20236+P23574+P23576+P28471+P28473+P30191+P62813+P63079+P63138+Q91ZM7+Q9ES14); settings: Compound concentration 10.0 uM
# [45] = biological target: Alpha-1D adrenergic receptor (Homo sapiens) (UniProt P25100); settings: Compound concentration 10.0 uM
# [46] = biological target: Phosphorylase b kinase gamma catalytic chain, liver/testis isoform (Homo sapiens) (UniProt P15735); test: PHKG2 ProQinase selectivity panel; settings: Compound concentration 1.0 uM
# Chain of Phosphorylase b kinase gamma catalytic chain, liver/testis isoform (Homo sapiens) (P15735 whole entry, looked up, canonical isoform): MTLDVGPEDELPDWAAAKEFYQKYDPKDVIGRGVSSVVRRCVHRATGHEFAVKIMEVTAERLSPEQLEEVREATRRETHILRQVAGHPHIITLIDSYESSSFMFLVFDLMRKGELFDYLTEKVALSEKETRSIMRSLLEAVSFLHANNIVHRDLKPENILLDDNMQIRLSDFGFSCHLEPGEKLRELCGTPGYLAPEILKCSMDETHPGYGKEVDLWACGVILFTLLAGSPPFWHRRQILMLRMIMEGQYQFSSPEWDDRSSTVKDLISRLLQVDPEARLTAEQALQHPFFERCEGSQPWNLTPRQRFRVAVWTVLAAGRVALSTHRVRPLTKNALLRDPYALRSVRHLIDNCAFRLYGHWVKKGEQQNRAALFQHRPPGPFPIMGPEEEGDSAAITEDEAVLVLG
# Chain of 5-hydroxytryptamine receptor 2A (P28223 whole entry): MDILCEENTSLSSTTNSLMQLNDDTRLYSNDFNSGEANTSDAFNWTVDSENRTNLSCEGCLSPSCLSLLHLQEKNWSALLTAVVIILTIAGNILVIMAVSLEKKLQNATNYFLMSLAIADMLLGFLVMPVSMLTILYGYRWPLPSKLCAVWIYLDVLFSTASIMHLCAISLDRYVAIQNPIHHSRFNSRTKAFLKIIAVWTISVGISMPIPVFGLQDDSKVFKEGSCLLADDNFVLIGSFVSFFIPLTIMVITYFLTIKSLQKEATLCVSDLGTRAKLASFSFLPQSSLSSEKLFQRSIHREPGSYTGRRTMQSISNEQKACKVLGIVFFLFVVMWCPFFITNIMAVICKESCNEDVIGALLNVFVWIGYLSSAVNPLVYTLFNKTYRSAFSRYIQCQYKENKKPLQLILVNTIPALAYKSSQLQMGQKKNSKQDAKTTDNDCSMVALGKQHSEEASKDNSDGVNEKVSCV
compound,measurement,setting,value
O=C1c2ccc(Nc3ccc(F)cc3F)cc2CCc2ccc(OC[C@H](O)CO)cc21 [Skepinone-L],Ki,[1]; read-out: Ki,3.71 µM
same,Ki,[1]; read-out: pKi (converted),3.39 µM
same,% Residual activity with Skepinone-L,[2],105%
same,% Residual activity with Skepinone-L,[3],88%
same,% Residual activity with Skepinone-L,[4],99%
same,% Residual activity with Skepinone-L,[5],121%
same,% Residual activity with Skepinone-L,[6],94%
same,% Residual activity with Skepinone-L,[7],99%
same,% Residual activity with Skepinone-L,[8],94%
same,% Residual activity with Skepinone-L,[9],83%
same,% Residual activity with Skepinone-L,[10],107%
same,% Residual activity with Skepinone-L,[11],96%
same,% Residual activity with Skepinone-L,[12],74%
same,% Residual activity with Skepinone-L,[13],119%
same,% Residual activity with Skepinone-L,[14],116%
same,% Residual activity with Skepinone-L,[15],128%
same,% Residual activity with Skepinone-L,[16],91%
same,% Residual activity with Skepinone-L,[17],121%
same,% Residual activity with Skepinone-L,[18],83%
same,% Residual activity with Skepinone-L,[19],81%
same,% Residual activity with Skepinone-L,[20],111%
same,% Residual activity with Skepinone-L,[21],109%
same,% Residual activity with Skepinone-L,[22],94%
same,% Residual activity with Skepinone-L,[23],88%
same,% Residual activity with Skepinone-L,[24],89%
same,% Residual activity with Skepinone-L,[25],102%
same,% Residual activity with Skepinone-L,[26],85%
same,% Residual activity with Skepinone-L,[27],83%
same,% Residual activity with Skepinone-L,[28],87%
same,% Residual activity with Skepinone-L,[29],93%
same,% Residual activity with Skepinone-L,[30],97%
same,% Residual activity with Skepinone-L,[31],94%
same,% Residual activity with Skepinone-L,[32],85%
same,% Residual activity with Skepinone-L,[33],102%
same,% Residual activity with Skepinone-L,[34],141%
same,% Residual activity with Skepinone-L,[35],85%
same,% Residual activity with Skepinone-L,[36],77%
same,% Residual activity with Skepinone-L,[37],53%
same,% Residual activity with Skepinone-L,[38],88%
same,inhibition,[39],15.2%
same,inhibition,[40],18.8%
same,inhibition,[41],13.8%
same,inhibition,[42],7.19%
same,inhibition,[43],22.5%
same,inhibition,[44],8.2%
same,inhibition,[45],19.5%
same,% Residual activity with Skepinone-L,[46],73%
